Data: US9132136B2, “Pharmaceutical combination” (HOFFMANN-LA ROCHE INC., priority 2010, dated 2015)
Entries after “also recorded” stand apart in the source; their conditions may differ. Where a name gives a salt, the structure may show the parent alone. Read-outs that look alike come from different tables or passages of the source. Blank lines part the entries; values can stand above or below the compound they belong to.

Columns and labels:
[1] = paediatric patients, cited from earlier work
[2] = 14-day treatment in rats: body weight gain, fat mass (MR relaxometry), food intake
[3] = target: T1, mouse TAAR1 (Mus musculus, UniProt Q923Y8); assay: In vitro functional activity (cAMP assay) at mouse TAAR1 receptor in recombinant HEK293 cells; format: cell-based; conditions: for Emax: HEK293, relative to phenylethylamine having 100% agonistic activity, read-out: % efficacy
T1 construct: expressed in transfected cells
Protocol: In Vitro Functional Activity of TAAR1 Agonists at Mouse TAAR1 Receptor
Recombinant HEK293 cells expressing the mouse TAAR1 were grown at 37° C. and 5% CO2/95% air in 250 ml Falcon culture flasks in 30 ml culture medium. The cell culture medium contained DMEM high glucose, fetal calf serum (10%, heat inactivated for 30 min at 56° C.), geneticin G418 (500 μg/ml), and penicillin/streptomycin (1%). Cells were harvested when 80-90% confluent. Then culture medium was then removed from the culture flasks, cells washed once with 5 ml of PBS. After removing the wash solution, 5 ml of trypsin/EDTA solution were added for 5 min at 37° C. Afterwards, 45 ml of culture medium was added to the 5 ml detached cell solution and the total 50 ml transferred into a 50 ml Falcon tube (ref: 2070), the tube was centrifuged at 1300 rpm for 3 min at RT and the culture medium removed. The cell pellet was resuspended in fresh culture medium and brought to 5×10 E5 cells per milliliter. Then the cells were plated in 96-well Plate (BIOCOAT 6640 from Becton Dickinson) with a multipipette (100 μl/well, 50 000 cells/well) and incubated 20 h at 37° C.
The cell culture medium was removed and the cells washed once with PBS. 50 μl of PBS (AMIMED Endotoxine free: 8-05F00-1) with 1 mM IBMX were added and the cells allowed to incubate for 30 min at 37° C. and 5% CO2/95% air. Then 50 μl of a (e.g.) 20 μM compound solution or 50 μl of a 50% beta-PEA stimulation concentration in PBS (AMIMED Endotoxine free) with 1 mM IBMX were added and the cells incubated for 30 min at 37° C. as above again. After the incubation the cells were lysed with 50 μl of the 3× Detection Mix solution containing Ru-cAMP, Alexa700-cAMP Ab and lysis buffer for at least 60 min (better 2 h) at RT under strong shaking. The fluorescence is measured on the NanoScan (10M reader) (Ex. 456 nm, Em. 630 & 700 nm).
Efficacy values (% eff.) are relative to phenylethylamine having 100% agonistic activity.

[4] = Oral glucose tolerance test (oGTT) in male C57Bl6 mice; format: in vivo, male C57BL/6J mice
Protocol: An oral glucose tolerance test (oGTT) was performed in C57Bl6 mice to address potential anti-diabetic effects of TAAR1 agonists. Male C57BL/6J mice (Charles River Laboratories, Lyon, France) were stratified into groups of 8 mice according to body weight. The evening before the animals received 1 g food, this corresponds to a fasting period of about 10 hours. At the experiment day the animals were treated with TAAR1 agonists or placebo (0.3% Tween 80) 45 minutes prior to an oral glucose challenge of 2 g/kg. The main readout was blood glucose measured with Accu-Chek Aviva. In parallel blood samples were taken for insulin determination.

[5] = test system: cocaine-induced hyperlocomotor activity in mice; assay: Cocaine-induced locomotion test in mice; format: in vivo
[6] = test system: L-687414-induced hyperlocomotion in mice; assay: L-687414-induced locomotion test in mice; format: in vivo
[7] = 14 days, olanzapine 2 mg/kg p.o.
[8] = HEK293 cells expressing mouse TAAR1, cAMP assay, read-out: EC50
[9] = 10 and 30 mg/kg p.o., vs vehicle
[10] = 0.3 and 1 mg/kg p.o., vs vehicle
[11] = 14 days, 1 mg/kg p.o., vs vehicle
[12] = 14 days, 3 and 10 mg/kg p.o., vs vehicle
[13] = 0.1 and 0.3 mg/kg p.o., vs vehicle

T1 sequence (Q923Y8 whole entry): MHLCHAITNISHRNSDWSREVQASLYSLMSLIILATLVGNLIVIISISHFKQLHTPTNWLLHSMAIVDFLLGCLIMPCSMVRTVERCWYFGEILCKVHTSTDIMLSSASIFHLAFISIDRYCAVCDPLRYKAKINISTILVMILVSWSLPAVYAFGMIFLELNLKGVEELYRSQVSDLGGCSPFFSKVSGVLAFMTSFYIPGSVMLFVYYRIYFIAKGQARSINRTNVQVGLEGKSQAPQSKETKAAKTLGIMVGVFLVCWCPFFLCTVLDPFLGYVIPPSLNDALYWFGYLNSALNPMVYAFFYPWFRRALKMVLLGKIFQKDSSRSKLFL

Compound: Cc1cc2c(s1)Nc1ccccc1N=C2N1CCN(C)CC1 [olanzapine, reference compound]
- incidence rates of hyperglycaemia and the metabolic syndrome [1]: highest incidence rates
- food intake [2, 7]: increase
- weight gain [2, 7]: increase
- Cumulative food intake ± SEM ([2]; Study 2, olanzapine 2 mg/kg): 301.6 ± 8.6 g

Compound: O=C(Nc1ccc(C2CCNC2)cc1)c1ccc(Cl)cc1 (racemic) [Example S6, (RS)-4-Chloro-N-(4-pyrrolidin-3-yl-phenyl)-benzamide hydrochloride]
- Emax [3]: 78%
- EC50 [3, 8]: 1.4 nM
- glucose AUC (0-60 min) during oGTT [4, 9]: markedly lowered

Compound: O=C(Nc1ccc([C@H]2CNCCO2)cc1)c1ccc(OCC(F)(F)F)nc1 [Example S13, (S)—N-(4-(Morpholin-2-yl)phenyl)-6-(2,2,2-trifluoroethoxy)nicotinamide hydrochloride]
- Emax [3]: 54%
- EC50 [3, 8]: 1.6 nM
- glucose AUC (0-60 min) during oGTT ([4]; 3 mg/kg p.o., vs vehicle): markedly lowered

Compound: NC1=N[C@@H](c2ccc(Cl)cc2C(F)(F)F)CO1 [Example S3, (+)-(S)-4-(4-Chloro-2-trifluoromethyl-phenyl)-4,5-dihydro-oxazol-2-ylamine]
- EC50 [3]: 1.3 nM
- Emax [3]: 67%
- glucose AUC (0-60 min) during oGTT ([4]; 1 and 3 mg/kg p.o., vs vehicle): markedly lowered
- insulin AUC (0-60 min) during oGTT ([4]; 1 and 3 mg/kg p.o., vs vehicle): markedly lowered

Compound: Cc1cc(C(=O)Nc2ccc([C@@H]3CNCCO3)cc2)cc(Cl)n1 [Example S12, (R)-2-Chloro-6-methyl-N-(4-(morpholin-2-yl)phenyl)isonicotinamide hydrochloride]
- Emax [3]: 69%
- EC50 [3, 8]: 3.1 nM
- glucose AUC (0-60 min) during oGTT ([4]; 3 mg/kg p.o., vs vehicle): markedly lowered

Compound: CCN(C[C@H]1COC(N)=N1)c1ccccc1 [Example S4, (S)-4-[(Ethyl-phenyl-amino)-methyl]-4,5-dihydro-oxazol-2-ylamine]
- Emax [3]: 65%
- EC50 [3, 8]: 3.3 nM
- glucose AUC (0-60 min) during oGTT ([4]; 0.3 mg/kg p.o., vs vehicle): markedly lowered
- insulin AUC (0-60 min) during oGTT ([4]; 0.3 mg/kg p.o., vs vehicle): markedly lowered

Compound: Cc1nc2n(c(=O)c1CCN1CCC(c3noc4cc(F)ccc34)CC1)CCCC2 [risperidone]
- levels of triglycerides ([1]; study period): increased significantly

Compound: CC[C@@H](C[C@H]1COC(N)=N1)Oc1cccc(O)c1 [Example S5, 3-[(S)-1-((S)-2-Amino-4,5-dihydro-oxazol-4-ylmethyl)-propoxy]-phenol]
- Emax [3]: 51%
- EC50 [3, 8]: 1.6 nM
- glucose AUC (0-60 min) during oGTT ([4]; 30 mg/kg p.o., vs vehicle): markedly lowered

Compound: OCCOCCN1CCN(C2=Nc3ccccc3Sc3ccccc32)CC1 [quetiapine]
- incidence rates of hyperglycaemia and the metabolic syndrome [1]: modestly higher incidence rates
- adverse metabolic baseline-to-endpoint changes (total cholesterol, triglycerides, non-HDL cholesterol, ratio of triglycerides to HDL cholesterol) ([1]; study period): reached statistical significance

Compound: Cc1c(F)cccc1[C@H]1COC(N)=N1 [Example S2, (S)-4-(3-fluoro-2-methyl-phenyl)-4,5-dihydro-oxazol-2-ylamine]
- Emax [3]: 65%
- EC50 [3, 8]: 1.8 nM
- cocaine-induced hyperlocomotor activity ([5]; 1 and 3 mg/kg p.o.): significantly antagonized
- effects on baseline locomotor activity ([5]; doses that antagonized cocaine (1 and 3 mg/kg p.o.)): modest effects
- cocaine-induced hyperlocomotor activity ([5]; tested alone, 0.3 mg/kg p.o., 0.3 mg/kg): partially active; also recorded: partially antagonized
- L-687414-induced hyperlocomotion ([6]; acute, 0.00003-1 mg/kg p.o.): dose-dependently antagonized; also recorded: fully antagonized
- L-687414-induced locomotor activity ([6]; alone, 0.001 mg/kg p.o.): partially active
- glucose AUC (0-60 min) during oGTT [4, 10]: markedly lowered
- insulin AUC (0-60 min) during oGTT [4, 10]: markedly lowered
- fat mass [2, 11]: No significant effect
- food intake [2, 11]: No significant effect
- weight gain ([2]; 14 days, 1 mg/kg p.o., vs vehicle, 1 mg/kg): No significant effect and not
- food intake ([2]; 14 days, 10 mg/kg): significant reduction
- weight loss compared to pre-treatment values ([2]; 14 days, 3 and 10 mg/kg p.o.): without inducing weight loss
- fat mass [2, 12]: reduced
- food intake [2, 12]: reduced
- weight gain [2, 12]: reduced
- Cumulative food intake ± SEM ([2]; Study 1, 3 mg/kg): 233.8 ± 7.4 g
- Cumulative food intake ± SEM ([2]; Study 1, 10 mg/kg): 217.0 ± 7.3 g
- Cumulative food intake ± SEM ([2]; Study 2, 1 mg/kg): 248.8 ± 5.0 g

Compound: O=C(Nc1ccc(C2CCNC2)cc1)Nc1ccc(Cl)cn1 (racemic) [Example S7, (RS)-1-(5-Chloro-pyridin-2-yl)-3-(4-pyrrolidin-3-yl-phenyl)-urea hydrochloride]
- Emax [3]: 57%
- EC50 [3, 8]: 0.8 nM
- glucose AUC (0-60 min) during oGTT ([4]; 10 mg/kg p.o., vs vehicle): markedly lowered

Compound: O=C1CCc2ccc(OCCCCN3CCN(c4cccc(Cl)c4Cl)CC3)cc2N1 [aripiprazole]
- adverse metabolic baseline-to-endpoint changes (total cholesterol, triglycerides, non-HDL cholesterol, ratio of triglycerides to HDL cholesterol) ([1]; study period): not significant

Compound: CC[C@@H](C[C@H]1COC(N)=N1)c1ccccc1 [Example S1, (S)-4-((S)-2-Phenyl-butyl)-4,5-dihydro-oxazol-2-ylamine]
- Emax [3]: 90%
- EC50 [3, 8]: 2 nM
- cocaine-induced hyperlocomotor activity ([5]; tested alone, 0.1 mg/kg p.o.): partially antagonized
- fasting glucose levels [4]: No effect
- glucose AUC (0-60 min) during oGTT (blood glucose excursion) [4, 13]: significantly lowered; also recorded: markedly lowered
- insulin AUC (0-60 min) during oGTT (insulin excursion) [4, 13]: significantly lower; also recorded: markedly lowered

The next lines start with results.

- Emax [3]: 60%
- EC50 [3, 8]: 0.4 nM
Compound: N#Cc1cccc(NC(=O)Nc2ccc([C@H]3CNCCO3)cc2)c1 [Example S16, (S)-1-(3-Cyanophenyl)-3-(4-(morpholin-2-yl)phenyl)urea hydrochloride]
- glucose AUC (0-60 min) during oGTT ([4]; 1 mg/kg p.o., vs vehicle): markedly lowered

- Emax [3]: 45%
- EC50 [3, 8]: 0.1 nM
Compound: NC1=N[C@@H](CCc2ccc(NC(=O)c3ccc(Cl)cc3)cc2)CO1 [Example S11, N-{4-[2-((S)-2-Amino-4,5-dihydro-oxazol-4-yl)-ethyl]-phenyl}-4-chloro-benzamide]
- glucose AUC (0-60 min) during oGTT ([4]; 1 and 3 mg/kg p.o., vs vehicle): markedly lowered

- Emax [3]: 99%
- EC50 [3, 8]: 1.7 nM
Compound: C[C@H](OC[C@H]1COC(N)=N1)c1ccc(F)cc1 [Example S9, (S)-4-[(S)-1-(4-Fluoro-phenyl)-ethoxymethyl]-4,5-dihydro-oxazol-2-ylamine]
- glucose AUC (0-60 min) during oGTT ([4]; 10 mg/kg p.o., vs vehicle): markedly lowered

- Emax [3]: 65%
- EC50 [3, 8]: 7.4 nM
Compound: O=C(Nc1ccc(C2CCNC2)cc1)c1ccc(Cl)cn1 (racemic) [Example S8, (RS)-5-Chloro-pyridine-2-carboxylic acid (4-pyrrolidin-3-yl-phenyl)-amide hydrochloride]
- glucose AUC (0-60 min) during oGTT [4, 9]: markedly lowered

- Emax [3]: 40%
- EC50 [3, 8]: 0.6 nM
Compound: O=C(NCc1ccc(F)cc1)Nc1ccc([C@H]2CNCCO2)cc1 [Example S15, (S)-1-(4-Fluorobenzyl)-3-(4-(morpholin-2-yl)phenyl)urea hydrochloride]
- glucose AUC (0-60 min) during oGTT ([4]; 1 mg/kg p.o., vs vehicle): markedly lowered

- Emax [3]: 55%
- EC50 [3, 8]: 4.6 nM
Compound: O=C(Nc1ccc([C@H]2CNCCO2)cc1)c1ccnc(C(F)(F)F)c1 [Example S14, (S)—N-(4-(Morpholin-2-yl)phenyl)-2-(trifluoromethyl)isonicotinamide hydrochloride]
- glucose AUC (0-60 min) during oGTT ([4]; 1 mg/kg p.o., vs vehicle): markedly lowered

- Emax [3]: 32%
- EC50 [3, 8]: 1.6 nM
Compound: NC1=N[C@@H](CCc2ccc(NC(=O)c3ncc(Cl)cn3)cc2)CO1 [Example S10, 5-Chloro-pyrimidine-2-carboxylic acid {4-[2-((S)-2-amino-4,5-dihydro-oxazol-4-yl)-ethyl]-phenyl}-amide]
- glucose AUC (0-60 min) during oGTT ([4]; 10 mg/kg p.o., vs vehicle): markedly lowered

- Emax [3]: 39%
- EC50 [3, 8]: 1.8 nM
Compound: O=C(Nc1ccc([C@H]2CNCCO2)cc1)c1ccc(Cl)nc1 [Example S17, (S)-6-Chloro-N-(4-(morpholin-2-yl)phenyl)nicotinamide hydrochloride]
- glucose AUC (0-60 min) during oGTT [4, 10]: markedly lowered
